This passage reports pest or weed control and YFM results from US9924717B2, “Molecules having pesticidal utility, and intermediates, compositions, and processes, related thereto” (Dow AgroSciences LLC, priority 2016, dated 2018).

By pest or weed control is commonly meant the degree to which the test organism was suppressed or injured, in per cent. Low values mean a weak effect, high ones a strong effect.

Holding throughout (format): in vivo
Experiment [1] has as its system Beet Armyworm (Spodoptera exigua, LAPHEG) (BAW). Kind of experiment: Bioassays on Beet Armyworm (BAW), 128-well diet tray assay. The following applies: Table ABC rating, Beet Armyworm. The protocol:
(§1) Example A: Bioassays on Beet Armyworm (Spodoptera exigua, LAPHEG) (“BAW”), Corn Earworm (Helicoverpa zea, Helize) (“CEW”), and Cabbage Looper (Trichoplusia ni, TRIPNI) (“CL”)
(§2) Certain molecules disclosed in this document were tested against BAW, CEW, and CL using procedures described in the following examples. In the reporting of the results, the “BAW, CEW, & CL Rating Table” was used (See Table Section).
Bioassays on BAW were conducted using a 128-well diet tray assay. one to five second instar BAW larvae were placed in each well (3 mL) of the diet tray that had been previously filled with 1 mL of artificial diet to which 50 μg/cm^2 of the test molecule (dissolved in 50 μL of 90:10 acetone-water mixture) had been applied (to each of eight wells) and then allowed to dry. Trays were covered with a clear self-adhesive cover and held at 25° C., 14:10 light-dark for five to seven days. Percent mortality was recorded for the larvae in each well; activity in the eight wells was then averaged. The results are indicated in the table entitled “Table ABC: Biological Results” (See Table Section).
(§3) Bioassays on BAW and CL were conducted according to the procedures outlined in Example A: Bioassays on Beet Armyworm (“BAW”) and Cabbage Looper (“CL”) using the indicated concentrations.

In experiment [2] the test system is Cabbage Looper (Trichoplusia ni, TRIPNI) (CL). Kind of experiment: Bioassays on Cabbage Looper (CL), 128-well diet tray assay. The following applies: Table ABC rating, Cabbage Looper. The protocol:
as §1, §2
Bioassays on CL were conducted using a 128-well diet tray assay. one to five second instar CL larvae were placed in each well (3 mL) of the diet tray that had been previously filled with 1 mL of artificial diet to which 50 μg/cm^2 of the test molecule (dissolved in 50 μL of 90:10 acetone-water mixture) had been applied (to each of eight wells) and then allowed to dry. Trays were covered with a clear self-adhesive cover and held at 25° C., 14:10 light-dark for five to seven days. Percent mortality was recorded for the larvae in each well; activity in the eight wells was then averaged. The results are indicated in the table entitled “Table ABC: Biological Results” (See Table Section).
as §3

Experiment [3] concerns Yellow Fever Mosquito (Aedes aegypti, AEDSAE) (YFM). Kind of experiment: Bioassays on Yellow Fever Mosquito (YFM), 96-well plate larval assay. The following applies: Table ABC rating. The protocol: Example C: Bioassays on Yellow Fever Mosquito (Aedes aegypti, AEDSAE) (“YFM”)
Certain molecules disclosed in this document were tested against YFM using procedures described in the following paragraph. In the reporting of the results, the “GPA & YFM Rating Table” was used (See Table Section).
Master plates containing 400 μg of a molecule dissolved in 100 μL of dimethyl sulfoxide (DMSO) (equivalent to a 4000 ppm solution) are used. A master plate of assembled molecules contains 15 μL per well. To this plate, 135 μL of a 90:10 water:acetone mixture is added to each well. A robot (Biomek® NXP Laboratory Automation Workstation) is programmed to dispense 15 μL aspirations from the master plate into an empty 96-well shallow plate (“daughter” plate). There are 6 reps (“daughter” plates) created per master. The created daughter plates are then immediately infested with YFM larvae.
The day before plates are to be treated, mosquito eggs are placed in Millipore water containing liver powder to begin hatching (4 g. into 400 mL). After the daughter plates are created using the robot, they are infested with 220 μL of the liver powder/larval mosquito mixture (about 1 day-old larvae). After plates are infested with mosquito larvae, a non-evaporative lid is used to cover the plate to reduce drying. Plates are held at room temperature for 3 days prior to grading. After 3 days, each well is observed and scored based on mortality. The results are indicated in the table entitled “Table ABC: Biological Results” (See Table Section).

Turning to `O=C(NC1CCC(F)(F)CC1)c1ccc(/C(F)=C/C(c2cc(Cl)cc(Cl)c2)C(F)(F)F)cc1C(F)(F)F` (stereo not drawn) [F25, (Z)-4-(3-(3,5-Dichlorophenyl)-1,4,4,4-tetrafluorobut-1-en-1-yl)-N-(4,4-difluorocyclohexyl)-2-(trifluoromethyl)benzamide], the pest or weed control at 50 µg/cm2 in experiment [1] and in experiment [2] was 50 to 100% in each case. Further, in experiment [3], the YFM result was “A (80-100)”.

In the case of `O=C(NC1CCC(F)(F)CC1)c1ccc(/C(F)=C/C(c2cc(Cl)c(F)c(Cl)c2)C(F)(F)F)cc1C(F)(F)F` (stereo not drawn) [F41, (Z)-4-(3-(3,5-Dichloro-4-fluorophenyl)-1,4,4,4-tetrafluorobut-1-en-1-yl)-N-(4,4-difluorocyclohexyl)-2-(trifluoromethyl)benzamide], the pest or weed control at 50 µg/cm2 in experiment [1] and in experiment [2] was 50 to 100% in each case. In addition, in experiment [3], the YFM entry is “A (80-100)”.

For `F/C(=C\C(c1cc(Cl)c(Cl)c(Cl)c1)C(F)(F)F)c1ccc(C(=S)NCC(F)(F)F)c(C(F)(F)F)c1` (stereo not drawn) [F33, (Z)-4-(1,4,4,4-tetrafluoro-3-(3,4,5-trichlorophenyl)but-1-en-1-yl)-N-(2,2,2-trifluoroethyl)-2-(trifluoromethyl)benzothioamide], the pest or weed control at 50 µg/cm2 in experiment [1] and in experiment [2] was 50 to 100% in each case. The YFM result in experiment [3] is on record as “B (More than 0-Less than 80)”.

For the molecule `O=C(NC1CCC(F)(F)CC1)c1ccc(/C(F)=C/C(c2cc(Cl)c(Br)c(Cl)c2)C(F)(F)F)cc1C(F)(F)F` (stereo not drawn) [F21], the pest or weed control at 50 µg/cm2 in experiment [1] and in experiment [2] was 50 to 100% in each case. Also, the YFM entry in experiment [3] is reported as “A (80-100)”.

As to `Cc1cc(C(/C=C(\F)c2ccc(C(=O)NC(C)C(F)(F)F)c(C(F)(F)F)c2)C(F)(F)F)cc(C)c1Cl` (stereo not drawn) [F30, 4-((Z)-3-(4-Chloro-3,5-dimethylphenyl)-1,4,4,4-tetrafluorobut-1-en-1-yl)-2-(trifluoromethyl)-N-(1,1,1-trifluoropropan-2-yl)benzamide], the pest or weed control at 50 µg/cm2 in experiment [1] and in experiment [2] was 50 to 100% each time. The YFM result in experiment [3] is “A (80-100)”.

In the case of `CC(NC(=O)c1ccc(/C(F)=C/C(c2cc(Br)cc(Br)c2)C(F)(F)F)cc1C(F)(F)F)C(F)(F)F` (stereo not drawn) [F28, (Z)-4-(3-(3,5-Dibromophenyl)-1,4,4,4-tetrafluorobut-1-en-1-yl)-2-(trifluoromethyl)-N-(1,1,1-trifluoropropan-2-yl)benzamide], the pest or weed control at 50 µg/cm2 in experiment [1] and in experiment [2] was 50 to 100% each time. Also, the YFM result in experiment [3] is listed as “A (80-100)”.

As for `O=C(NC1CC1)c1ccc(/C(F)=C/C(c2cc(Br)c(Cl)c(Br)c2)C(F)(F)F)cc1C(F)(F)F` (stereo not drawn) [F12, (Z)—N-cyclopropyl-4-(3-(3,5-dibromo-4-chlorophenyl)-1,4,4,4-tetrafluorobut-1-en-1-yl)-2-(trifluoromethyl)benzamide], the pest or weed control at 50 µg/cm2 in experiment [1] and in experiment [2] was 50 to 100% throughout. Besides, the YFM entry in experiment [3] is “A (80-100)”.

With `O=C(NC1CC1)c1ccc(/C(F)=C/C(c2cc(Cl)c(Br)c(Cl)c2)C(F)(F)F)cc1C(F)(F)F` (stereo not drawn) [F22, (Z)-4-(3-(4-Bromo-3,5-dichlorophenyl)-1,4,4,4-tetrafluorobut-1-en-1-yl)-N-cyclopropyl-2-(trifluoromethyl)benzamide], the pest or weed control at 50 µg/cm2 in experiment [1] and in experiment [2] was 50 to 100% in each case. Moreover, in experiment [3], the YFM result is on record as “A (80-100)”.

Consider `CC(NC(=O)c1ccc(/C(F)=C/C(c2cc(Cl)c(Cl)c(Cl)c2)C(F)(F)F)cc1C(F)(F)F)c1ccccn1` (stereo not drawn) [F52, (Z)—N-(1-(Pyridin-2-yl)ethyl)-4-(1,4,4,4-tetrafluoro-3-(3,4,5-trichlorophenyl)but-1-en-1-yl)-2-(trifluoromethyl)benzamide], for which the pest or weed control at 50 µg/cm2 in experiment [1] and in experiment [2] was 50 to 100% each time. For the same molecule, the YFM result in experiment [3] was “A (80-100)”.

With `O=C(NC1CCCC(F)(F)C1)c1ccc(/C(F)=C/C(c2cc(Cl)c(Cl)c(Cl)c2)C(F)(F)F)cc1C(F)(F)F` (stereo not drawn) [F13, (Z)—N-(3,3-Difluorocyclohexyl)-4-(1,4,4,4-tetrafluoro-3-(3,4,5-trichlorophenyl)but-1-en-1-yl)-2-(trifluoromethyl)benzamide], the pest or weed control at 50 µg/cm2 in experiment [1] and in experiment [2] was 50 to 100% throughout.

Turning to `O=C(NC1CS(=O)(=O)C1)c1ccc(/C(F)=C/C(c2cc(Cl)c(Cl)c(Cl)c2)C(F)(F)F)cc1C(F)(F)F` (stereo not drawn) [PF4, (Z)—N-(1,1-Dioxidothietan-3-yl)-4-(1,4,4,4-tetrafluoro-3-(3,4,5-trichlorophenyl)but-1-en-1-yl)-2-(trifluoromethyl)benzamide], the pest or weed control at 50 µg/cm2 in experiment [1] and in experiment [2] was 50 to 100% each time.

Regarding `O=C(NC1CSC1)c1ccc(/C(F)=C/C(c2cc(Cl)c(Cl)c(Cl)c2)C(F)(F)F)cc1C(F)(F)F` (stereo not drawn) [PF2, (Z)-4-(1,4,4,4-Tetrafluoro-3-(3,4,5-trichlorophenyl)but-1-en-1-yl)-N-(thietan-3-yl)-2-(trifluoromethyl)benzamide], the pest or weed control at 50 µg/cm2 in experiment [1] and in experiment [2] was 50 to 100% each time.

Regarding `O=C(NC1CCC(F)(F)CC1)c1ccc(/C(F)=C/C(c2cc(Cl)c(Cl)c(Cl)c2)C(F)(F)F)cc1Br` (stereo not drawn) [F10, (Z)-2-Bromo-N-(4,4-difluorocyclohexyl)-4-(1,4,4,4-tetrafluoro-3-(3,4,5-trichlorophenyl)but-1-en-1-yl)benzamide], the pest or weed control at 50 µg/cm2 in experiment [1] and in experiment [2] was 50 to 100% each time.

Regarding `CN(C)/C=N/C(=O)c1ccc(/C(F)=C/C(c2cc(Cl)c(Cl)c(Cl)c2)C(F)(F)F)cc1C(F)(F)F` (stereo not drawn) [F18, (E)-N-((dimethylamino)methylene)-4-((Z)-1,4,4,4-tetrafluoro-3-(3,4,5-trichlorophenyl)but-1-en-1-yl)-2-(trifluoromethyl)benzamide], the pest or weed control at 50 µg/cm2 in experiment [1] and in experiment [2] was 50 to 100% in each case.

Turning to `N#CC1(NC(=O)c2ccc(/C(F)=C/C(c3cc(Cl)c(Cl)c(Cl)c3)C(F)(F)F)cc2C(F)(F)F)CC1` (stereo not drawn) [F62, (Z)—N-(1-Cyanocyclopropyl)-4-(1,4,4,4-tetrafluoro-3-(3,4,5-trichlorophenyl)but-1-en-1-yl)-2-(trifluoromethyl)benzamide], the pest or weed control at 50 µg/cm2 in experiment [1] and in experiment [2] was 50 to 100% throughout.

Regarding `C[C@H](CNCC(F)(F)F)NC(=O)c1ccc(/C(F)=C/C(c2cc(Cl)c(Cl)c(Cl)c2)C(F)(F)F)cc1C(F)(F)F` (stereo partly drawn) [F61, 4-((Z)-1,4,4,4-Tetrafluoro-3-(3,4,5-trichlorophenyl)but-1-en-1-yl)-N—((R)-1-((2,2,2-trifluoroethyl)amino)propan-2-yl)-2-(trifluoromethyl)benzamide], the pest or weed control at 50 µg/cm2 in experiment [1] and in experiment [2] was 50 to 100% in each case.

Take `NC(=O)c1ccc(/C(F)=C/C(c2cc(Cl)c(Cl)c(Cl)c2)C(F)(F)F)cc1C(F)(F)F` (stereo not drawn) [F17, (Z)-4-(1,4,4,4-Tetrafluoro-3-(3,4,5-trichlorophenyl)but-1-en-1-yl)-2-(trifluoromethyl)benzamide]: the pest or weed control at 50 µg/cm2 in experiment [1] and in experiment [2] was 50 to 100% throughout.

Consider `O=C(NC1CC1)c1ccc(/C(F)=C/C(c2ccc(Cl)c(Cl)c2)C(F)(F)F)cc1C(F)(F)F` (stereo not drawn) [F35, (Z)—N-Cyclopropyl-4-(3-(3,4-dichlorophenyl)-1,4,4,4-tetrafluorobut-1-en-1-yl)-2-(trifluoromethyl)benzamide], for which the pest or weed control at 50 µg/cm2 in experiment [1] and in experiment [2] was 50 to 100% throughout.
